The values below are quoted from earlier work in US20210363254A1, “PHARMACEUTICAL COMBINATIONS” (Novartis AG, priority 2018, published 2021).

The series deals with renal cell carcinoma (RCC). The note with it: RCC patients beyond first-line therapy; cited from earlier work.

On to “Nivolumab: inhibitor of the PD-1/PD-L1 interaction approved for use in RCC”, for which the “OS benefit compared with everolimus” value was 5.4 months and the “median OS” value is given as 25 months.
